US20050215548A1 (Cyclacel Limited, priority 2002, published 2005)

Molecular target: T1, HDM2 (Homo sapiens, UniProt Q00987)
T1 construct: Recombinant HDM2 (1.5 μg per well) in TBS-BSA buffer
Experiment: Fluorescence polarisation competitive HDM2 binding assay
Conditions: fluorescence polarisation format; Table 1; read-out: IC50 In vitro competitive HDM2 binding assay
Description: This was carried out using a 96-well microtiter plate (Costar) format. Recombinant HDM2 (1.5 μg per well) in TBS-BSA buffer (50 mM Tris pH 7.4, 150 mM NaCl, and 0.1% BSA) was incubated for 5 min at room temperature in the presence of serially diluted test compound (in TBS-BSA buffer with a final concentration of 5% DMSO). Fluorescently labelled p53-derived peptide (fluorescein-[…]NH2, 0.2 μM) was added to each well and the plate was incubated at room temperature for 45 min. The fluorescence polarisation (excitation 485 nm, emission 520 nm) of the peptide was measured. IC50 values were calculated from dose-response curves.
The fluorescence polarisation competitive HDM2 binding assay described in Example 3 was used. Furthermore, the anti-proliferative potency of the compounds against three human tumour cell lines with different genetic make-up was also determined. […] The cell lines used were as follows: AGS, gastric adenocarcinoma, wild-type p53; H1299, large cell lung carcinoma, p53 null, low HDM2; SJSA-1, primitive multipotential bone sarcoma, wild-type p53, overexpressed HDM2.

T1 sequence (Q00987 whole entry): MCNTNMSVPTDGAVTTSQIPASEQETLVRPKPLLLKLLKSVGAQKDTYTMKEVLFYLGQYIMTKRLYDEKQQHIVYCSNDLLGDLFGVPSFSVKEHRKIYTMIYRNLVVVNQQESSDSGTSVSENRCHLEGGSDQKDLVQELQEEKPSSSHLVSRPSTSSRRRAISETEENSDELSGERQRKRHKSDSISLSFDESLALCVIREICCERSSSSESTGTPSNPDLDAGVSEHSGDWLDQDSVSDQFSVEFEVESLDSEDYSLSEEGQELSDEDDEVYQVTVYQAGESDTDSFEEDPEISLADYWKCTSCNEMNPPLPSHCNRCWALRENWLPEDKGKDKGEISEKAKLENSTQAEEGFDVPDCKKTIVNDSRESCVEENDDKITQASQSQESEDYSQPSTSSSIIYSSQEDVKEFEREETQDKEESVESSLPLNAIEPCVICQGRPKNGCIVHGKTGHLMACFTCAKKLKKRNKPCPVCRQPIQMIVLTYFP

Row | IC50 [µM] | Compound
1 | 295 ± 36 | O=S(=O)(Nc1ccc(Cl)c(Cl)c1)c1ccc(Cl)s1 [Compound 26, 5-Chlorothiophene-2-sulfonic acid (3,4-dichlorophenyl)amide]
2 | 199 ± 28 | O=S(=O)(Nc1cccc(C(F)(F)F)c1)c1cc(Br)c(Br)s1 [Compound 27, 4,5-Dibromothiophene-2-sulfonic acid (3-trifluoromethylphenyl)amide]
3 | 160 ± 31 | O=S(=O)(Nc1ccc(Cl)c(Cl)c1)c1cc(Br)c(Br)s1 [Compound 28, 4,5-Dibromothiophene-2-sulfonic acid (3,4-dichlorophenyl)amide]
4 | 129 ± 22 | O=[N+]([O-])c1cc(S(=O)(=O)Nc2cc(C(F)(F)F)cc(C(F)(F)F)c2)ccc1Cl [Compound 29, N-(3,5-Bis-trifluoromethylphenyl)-4-chloro-3-nitrobenzenesulfonamide]
5 | 427 ± 3 | O=[N+]([O-])c1cc(S(=O)(=O)Nc2ccc(Cl)c(Cl)c2)ccc1Cl [Compound 30, 4-Chloro-N-(3,4-dichlorophenyl)-3-nitrobenzenesulfonamide]
6 | 350 ± 10 | Cn1ncc(-c2ccc(S(=O)(=O)Nc3ccc(C(F)(F)F)cc3)s2)c1C(F)(F)F [Compound 31, 5-(1-Methyl-5-trifluoromethyl-1H-pyrazol-4-yl)-thiophene-2-sulfonic acid (4-trifluoromethylphenyl)-amide]
7 | 408 ± 31 | O=S(=O)(Nc1ccc(F)cc1)c1cc(S(=O)(=O)Nc2ccc(F)cc2)c(Cl)s1 [Compound 32, 5-Chlorothiophene-2,4-disulfonic acid bis-[(4-fluorophenyl)-amide]]
8 | 295 ± 23 | Cc1ccc(S(=O)(=O)Nc2ccc(C(F)(F)F)cc2)cc1[N+](=O)[O-] [Compound 34, 4-Methyl-3-nitro-N-(4-trifluoromethylphenyl)benzenesulfonamide]
9 | 429 | Cc1ccc(S(=O)(=O)Nc2ccc(C(F)(F)F)cc2)cc1N [Compound 36, 3-Amino-4-methyl-N-(4-trifluoromethyl-phenyl)benzenesulfonamide]
10 | 294 ± 52 | Cc1ccc(S(=O)(=O)Nc2ccc(Cl)cc2)cc1[N+](=O)[O-] [Compound 37, N-(4-Chlorophenyl)-4-methyl-3-nitrobenzenesulfonamide]
11 | 249 ± 30 | CC(C)CN(c1ccc(Cl)cc1)S(=O)(=O)c1cc([N+](=O)[O-])c(Cl)s1 [Compound 58, 5-Chloro-4-nitro-thiophene-2-sulfonic acid (4-chloro-phenyl)-isobutyl-amide]
12 | 40 ± 1 | O=[N+]([O-])c1cc(S(=O)(=O)Nc2nc3ccccc3[nH]2)sc1Cl [Compound 59, 5-Chloro-4-nitro-thiophene-2-sulfonic acid (1H-benzo-imidazol-2-yl)-amide]
13 | 67 ± 1 | O=[N+]([O-])c1cc(S(=O)(=O)Nc2ccccc2)sc1Cl [Compound 62, 5-Chloro-4-nitro-thiophene-2-sulfonic acid phenylamide]
14 | 135 ± 19 | O=S(=O)(Nc1ccc(Cl)cc1)c1cc(S(=O)(=O)Nc2ccc(Cl)cc2)c(Cl)s1 [Compound 70, 5-Chloro-thiophene-2,4-disulfonic acid bis-[(4-chloro-phenyl)-amide]]
15 | 237 ± 35 | CCc1sc(S(=O)(=O)Nc2ccc(Cl)cc2)cc1[N+](=O)[O-] [Compound 71, 5-Ethyl-4-nitro-thiophene-2-sulfonic acid (4-chloro-phenyl)-amide]
16 | 123 ± 15 | Cc1sc(S(=O)(=O)Nc2ccc(Cl)cc2)cc1S(=O)(=O)Nc1ccc(Cl)cc1 [Compound 74, 5-Methyl-thiophene-2,4-disulfonic acid bis-[(4-chloro-phenyl)-amide]]
17 | 366 ± 7 | O=[N+]([O-])c1csc(S(=O)(=O)Nc2ccc(C(F)(F)F)cc2)c1 [Compound 76, 4-Nitro-thiophene-2-sulfonic acid (4-trifluoromethyl-phenyl)-amide]
18 | 247 ± 61 | O=[N+]([O-])c1csc(S(=O)(=O)NCCc2c[nH]c3ccccc23)c1 [Compound 77, 4-Nitro-thiophene-2-sulfonic acid [2-(1H-indol-3-yl)-ethyl]-amide]
19 | 315 ± 83 | Cn1nc(-c2ccc(S(=O)(=O)N(Cc3cccc(C(F)(F)F)c3)c3cc(C(F)(F)F)cc(C(F)(F)F)c3)s2)cc1C(F)(F)F [Compound 78, 5-(1-Methyl-5-tri-fluoromethyl-1H-pyrazol-3-yl)-thiophene-2-sulfonic acid (3,5-bis-tri-fluoromethyl-phenyl)-(3-trifluoro-methyl-benzyl)-amide]
20 | 419 ± 31 | O=[N+]([O-])c1cc(S(=O)(=O)Nc2ccc(Cl)cc2)sc1N1CCOCC1 [Compound 79, 5-Morpholin-4-yl-4-nitro-thiophene-2-sulfonic acid (4-chloro-phenyl)-amide]
21 | 154 ± 27 | COCCNc1sc(S(=O)(=O)Nc2ccc(Cl)cc2)cc1[N+](=O)[O-] [Compound 80, 5-(2-Methoxy-ethylamino)-4-nitro-thiophene-2-sulfonic acid (4-chloro-phenyl)-amide]

Row | IC50 [µM] | Compound
22 | 308 ± 17 | O=S(=O)(Nc1cc(C(F)(F)F)cc(C(F)(F)F)c1)c1c(Cl)nc2sccn12 [Compound 84, 6-Chloro-imidazo[2,1-b]thiazole-5-sulfonic acid (3,5-bis-trifluoro-methyl-phenyl)-amide]
23 | 432 ± 7 | O=S(=O)(Nc1ccc(Cl)cc1)c1ccc2c(c1)OCCO2 [Compound 85, 2,3-Dihydro-benzo[1,4]dioxine-6-sulfonic acid (4-chloro-phenyl)-amide]
24 | 375 ± 39 | O=S(=O)(Nc1cc(C(F)(F)F)cc(C(F)(F)F)c1)c1ccc2c(c1)OCCO2 [Compound 86, 2,3-Dihydro-benzo[1,4]dioxine-6-sulfonic acid (3,5-bis-trifluoromethyl-phenyl)-amide]
25 | 212 ± 27 | O=S(=O)(Nc1ccc(Cl)cc1)c1ccc(Oc2ccccc2)nc1 [Compound 87, 6-Phenoxy-pyridine-3-sulfonic acid (4-chloro-phenyl)-amide]
26 | 174 ± 11 | Cc1c(S(=O)(=O)Nc2ccc(Cl)c([N+](=O)[O-])c2)sc2ccc(Cl)cc12 [Compound 88, 5-Chloro-3-methyl-benzo[b]thiophene-2-sulfonic acid (4-chloro-3-nitro-phenyl)-amide]
27 | 275 ± 45 | O=S(=O)(Nc1cc(C(F)(F)F)cc(C(F)(F)F)c1)c1ccc(-n2cccn2)cc1 [Compound 89, N-(3,5-Bis-trifluoromethyl-phenyl)-4-pyrazol-1-yl-benzenesulfonamide]
28 | 331 ± 52 | CCOC(=O)c1[nH]c(C)c(S(=O)(=O)Nc2ccc(Cl)cc2)c1C [Compound 90, 4-(4-Chloro-phenylsulfamoyl)-3,5-dimethyl-1H-pyrrole-2-carboxylic acid ethyl ester]
29 | 481 | Cc1[nH]c(C(=O)O)c(C)c1S(=O)(=O)Nc1cc(C(F)(F)F)cc(C(F)(F)F)c1 [Compound 91, 4-(3,5-Bis-trifluoromethyl-phenylsulfamoyl)-3,5-dimethyl-1H-pyrrole-2-carboxylic acid]
30 | 418 | Cc1[nH]c(C(=O)O)c(C)c1S(=O)(=O)Nc1ccc(Cl)cc1 [Compound 92, 4-(4-Chloro-phenylsulfamoyl)-3,5-dimethyl-1H-pyrrole-2-carboxylic acid]
31 | 373 ± 373 | CCOC(=O)c1sc(S(=O)(=O)Nc2ccc(Cl)cc2)nc1C [Compound 93, 2-(4-Chloro-phenylsulfamoyl)-4-methyl-thiazole-5-carboxylic acid ethyl ester]
32 | 227 ± 7 | O=S(=O)(Nc1ccc(Cl)cc1)c1cc(Cl)c(O)c(Cl)c1 [Compound 94, 3,5-Dichloro-N-(4-chloro-phenyl)-4-hydroxy-benzenesulfonamide]
33 | 243 ± 11 | O=S(=O)(Nc1cc(C(F)(F)F)cc(C(F)(F)F)c1)c1cc(Cl)c(O)c(Cl)c1 [Compound 95, N-(3,5-Bis-trifluoromethyl-phenyl)-3,5-dichloro-4-hydroxy-benzenesulfonamide]
34 | 449 ± 51 | O=S(=O)(Nc1ccc(C(F)(F)F)cc1)c1cc(Cl)c(O)c(Cl)c1 [Compound 96, 3,5-Dichloro-4-hydroxy-N-(4-trifluoromethyl-phenyl)-benzenesulfonamide]
35 | 394 ± 13 | O=[N+]([O-])c1ccc(S(=O)(=O)Nc2ccc(Cl)cc2)cc1 [Compound 97, N-(4-Chloro-phenyl)-4-nitro-benzene-sulfonamide]
36 | 207 | O=[N+]([O-])c1ccc(S(=O)(=O)Nc2cc(C(F)(F)F)cc(C(F)(F)F)c2)cc1 [Compound 98, N-(3,5-Bis-trifluoromethyl-phenyl)-4-nitro-benzenesulfonamide]
37 | 248 ± 29 | Nc1ccc(S(=O)(=O)Nc2cc(C(F)(F)F)cc(C(F)(F)F)c2)cc1Cl [Compound 99, 4-Amino-N-(3,5-bis-trifluoromethyl-phenyl)-3-chloro-benzenesulfonamide]
38 | 431 ± 5 | O=[N+]([O-])c1cccc(S(=O)(=O)Nc2ccc(C(F)(F)F)cc2)c1 [Compound 100, 3-Nitro-N-(4-trifluoromethyl-phenyl)-benzenesulfonamide]
39 | 299 ± 31 | O=S(=O)(Nc1cc(Cl)cc(Cl)c1)c1cc(Cl)c(O)c(Cl)c1 [Compound 101, 3,5-Dichloro-N-(3,5-dichloro-phenyl)-4-hydroxy-benzenesulfonamide]
40 | 467 ± 35 | Nc1ccc(S(=O)(=O)Nc2ccc(Cl)cc2)cc1Cl [Compound 102, 4-Amino-3-chloro-N-(4-chloro-phenyl)-benzenesulfonamide]
41 | 408 ± 18 | COc1ccc(S(=O)(=O)Nc2ccc(Cl)cc2)cc1Cl [Compound 103, 3-Chloro-N-(4-chloro-phenyl)-4-methoxy-benzenesulfonamide]
